{
  "source": "patent US3989837A",
  "about": "“Pharmaceutical compositions” (Chinoin Gyogyszer-es Vegyeszeti Termekek Gyara RT, priority 1972, dated 1976)",
  "test_system": "rats",
  "assay": "Toxicity on rats after oral administration, 3 months (Table 2')",
  "type": "in vivo, rat",
  "conditions": "for Perished animals/total animals, Sum / Perished animals/total animals: male rats",
  "procedure": "10 animals were treated with the substance in question for 3 months. […] A dosage corresponding to 20 mg./kg. of Indomethacine was added during the first, that corresponding to 40 mg./kg. of Indomethacine during the second, and that corresponding to 60 mg./kg. of Indomethacine during the third month. The animals of the control group received suspending agent only.",
  "data": [
    {"smiles": "COc1ccc2c(c1)c(CC(=O)OCC(Cl)(Cl)Cl)c(C)n2C(=O)c1ccc(Cl)cc1", "note": "[Example 5, 1-(p-chlorobenzoyl)-2-methyl-5-methoxy-indol-3-yl-acetic-acid trichloroethyl ester]", "values": [
      {"measurement": "Perished animals/total animals, Sum", "setting": "oral 27.3 mg./kg., 1st month", "result": "1/10"},
      {"measurement": "Perished animals/total animals", "setting": "oral 54.7 mg./kg., 2nd month", "result": "1/9"},
      {"measurement": "Perished animals/total animals, Sum", "setting": "oral 54.7 mg./kg., through 2nd month", "result": "2/10"},
      {"measurement": "Perished animals/total animals", "setting": "oral 80.0 mg./kg., 3rd month", "result": "2/8"},
      {"measurement": "Perished animals/total animals, Sum", "setting": "oral 80.0 mg./kg., through 3rd month", "result": "4/10"},
      {"measurement": "toxicity compared with Indomethacine", "setting": "rats (and mice), oral", "result": "far less toxic than Indomethacine not only on mice but also on rats"},
      {"measurement": "perishment during the observation period compared with Indomethacine", "setting": "rats, oral, observation period", "result": "the same as for Indomethacine"}
    ]}
  ]
}
